These results are taken from patent US20080146555A1, “Uses of Kinase Inhibitors and Compositions Thereof” (GPC Biotech, Inc, priority 2004, published 2008).

Data set [1] concerns the target T1, JNK2α2 (Homo sapiens, UniProt P45984).
T1 construct: purchased Upstate 14-329
Put plainly: JNK2α2 kinase assay. The class given is biochemical. As to the method:
• 1. 10× Reaction Buffer: 500 mM Tris-HCl, pH 7.5, 1 mM EGTA, 1% 2-mercaptoethanol. • 2. ATF2 (amino acids 19-69) (Catalog #12-367): Prepare a 30 μM stock. Use 2.5 μl per assay point for a final concentration of 3 μM per assay. • 3. JNK2α2/SAPK1a, active: Dilute to 4-40 ng/μl with 1× Reaction Buffer containing 0.03% Brij-35. Use 2.5 μl per assay point. • 4. […] [γ-^32P]ATP: Stock 1 mCi/100 μl (3000 Ci/mmol, obtained from PerkinElmer, Catalog #BLU002A). Make 10 μl aliquots (100 μCi/vial). Before starting the assay, dilute the Magnesium/ATP Cocktail 1:1 with sterile, distilled water. Then dilute an aliquot of [γ-^32P]ATP to 1 μCi/μl with 90 μl of the diluted Magnesium/ATP Cocktail. […]
• 1. Add 2.5 μl of 10× Reaction Buffer to a microcentrifuge tube. • 2. Add 2.5 μl […] of ATF2 (amino acids 19-69). • 3. Add 2.5 μl (10-100 ng) of JNK2α2/SAPK1a, active. • 4. Add 7.5 μl of sterile, distilled water. • 5. Add 10 μl of the diluted [γ-^32P]ATP solution. • 6. Incubate with agitation for 10 minutes at 30° C. • 7. Transfer a 20 μl aliquot onto the center of a 2 cm×2 cm P81 paper square (Catalog #20-134). • 8. Wash the paper squares three times with 0.75% phosphoric acid for 5 minutes. • 9. Wash the paper squares once for 5 minutes with acetone. • 10. Transfer the paper squares to a scintillation vial and add 5 ml scintillation cocktail. • 11. Read in scintillation counter. Compare the cpm of enzyme samples to the cpm of control samples that contain no enzyme (background control).

Data set [2] addresses T2, Blk (Homo sapiens, UniProt P51451).
T2 construct: purchased Upstate 14-517
Put plainly: Blk kinase assay. The class given is biochemical. As to the method: • 1. 10× Reaction buffer: […], 1 mM sodium orthovanadate, 1% 2-mercaptoethanol. • 2. Enzyme Dilution Buffer (EDB): 50 mM Tris-HCl pH 7.5, 0.1 mM EGTA, 0.1 mM sodium orthovanadate, 0.1% 2-mercaptoethanol 0.03% Brij-35. • 3. Blk (human), active: Dilute to 4-40 ng/μl with EDB. Use 2.5 μl per assay point. • 4. Poly(Glu-4-Tyr) (4:1): Prepare a 1 mg/ml stock. Use 2.5 μl per assay point for a final assay concentration of 0.1 mg/ml per assay point. • 5. [γ-^32P]ATP: Stock 1 mCi/100 μl (3000 Ci/mmol, obtained from PerkinElmer, Cat. # BLU002A). Make 10 μl aliquots (100 μCi/vial). Before starting the assay, dilute an aliquot to 1 μCi/μl with 90 μl of 75 mM MgCl2 and 500 μM cold ATP in 20 mM MOPS, pH 7.2, 25 mM β-glycerol phosphate, 5 mM EGTA, 1 mM sodium orthovanadate, 1 mM dithiothreitol.
• 1. Add 2.5 μl of 10× Reaction Buffer per assay. • 2. Add 2.5 μl (0.1 mg/ml) of Poly (Glu-4-Tyr) (4:1). • 3. Add 2.5 μl (10-100 ng) of Blk (human), active. • 4. Add 7.5 μl sterile, distilled water. • 5. Add 10 μl of the diluted [γ-^32P]ATP solution. • 6. Incubate for 10 minutes at 30° C. • 7. Transfer a 20 μl aliquot onto the center of a […]. • 8. Wash the assay squares three times for 5 minutes with 0.75% phosphoric acid. • 9. Wash the assay squares once for 5 minutes with acetone. • 10. Transfer the assay squares to vial and add 1 ml scintillation cocktail. • 11. Read in scintillation counter. Compare cpm of enzyme samples to cpm of control samples that contain background control.

The subject of data set [3] is quiescent tumor cells. Put plainly: Activity on quiescent tumor cells. The data set is classed as cell-based.
Data set [4] addresses T3, Casein Kinase 1 (yeast) (Schizosaccharomyces pombe, UniProt P40233).
T3 construct: purchased Upstate 14-112
Put plainly: CK1-Yeast kinase assay (A37 assay). The data set is classed as biochemical, S. pombe. As to the method:
• 1. Assay Dilution Buffer I (ADBI, Catalog #20-108): 20 mM MOPS, pH 7.2, 25 mM β-glycerol • phosphate, 5 mM EGTA, 1 mM sodium orthovanadate, 1 mM dithiothreitol. • 2. Casein Kinase 1, active: Dilute to 10-50 ng/μl. Use 10 μl (100-500 ng) per assay point. • 3. Casein Kinase 1 Substrate Peptide (Catalog #12-423): Prepare a 1 mM sock in ADBI. Use 10 μl per assay for a final concentration of 250 μM per assay point. • 4. [γ-^32P]ATP: Stock 1 mCi/100 μl (3000 Ci/mmol, obtained from Perkin Elmer, Cat. # BLU002A). Make 10 μl aliquots (100 μCi/vial). Before starting the assay, dilute an aliquot with 90 μl of 500 μM cold ATP and 75 mM magnesium chloride in ADBI.
• 1. Add 10 μl of ADBI to a microcentrifuge tube. • 2. Add 10 μl of Casein Kinase 1, active (100-500 ng). • 3. Add 10 μl (250 μM) Casein Kinase 1 Substrate Peptide. • 4. Add 10 μl of diluted [γ-^32P]ATP mixture. • 5. Incubate for 10 minutes at in a shaking incubator at 30° C. • 6. Transfer 25 μl onto the center of a 2 cm×2 cm P81 paper. • 7. Wash the assay squares three times with 0.75% phosphoric acid. • 8. Wash the assay squares once with acetone. • 9. Transfer the assay squares to a scintillation vial and add 5 ml scintillation cocktail. • 10. Read in scintillation counter. Compare cpm of enzyme samples to cpm of control samples that contain no enzyme (background control).

Data set [5] relates to Rb phosphorylation at Serine-780. Put plainly: Rb phosphorylation. The data set is classed as cell-based.
Data set [6] can be described thus: Solution stability. The class given is physicochemical. The note with it: pH6, room temperature, kept in dark.
[7] abbreviates: kinase panel, 10 μM ATP, read-out: JNK2α2 IC50.
Setting [8] is: read-out: MAPK9 Inhibition (IC50).
Where [9] appears, read: read-out: BLK Inhibition (IC50).

Counter-ions that a name gives are not always drawn. Like-named read-outs stand apart in the source and are kept apart here. Some results are limits rather than exact numbers.

T1 sequence (P45984 whole entry): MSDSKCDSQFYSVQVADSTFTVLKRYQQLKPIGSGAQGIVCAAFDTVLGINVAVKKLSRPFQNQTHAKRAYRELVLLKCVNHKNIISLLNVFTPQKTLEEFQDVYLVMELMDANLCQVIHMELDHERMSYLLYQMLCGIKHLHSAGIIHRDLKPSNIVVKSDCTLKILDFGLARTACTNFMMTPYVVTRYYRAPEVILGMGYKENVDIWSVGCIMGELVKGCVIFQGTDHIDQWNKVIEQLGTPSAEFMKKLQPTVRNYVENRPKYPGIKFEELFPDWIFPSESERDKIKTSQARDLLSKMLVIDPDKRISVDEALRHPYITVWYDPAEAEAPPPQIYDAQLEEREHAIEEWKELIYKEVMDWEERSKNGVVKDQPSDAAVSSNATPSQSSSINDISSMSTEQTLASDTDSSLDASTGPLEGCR
T2 sequence (P51451 whole entry): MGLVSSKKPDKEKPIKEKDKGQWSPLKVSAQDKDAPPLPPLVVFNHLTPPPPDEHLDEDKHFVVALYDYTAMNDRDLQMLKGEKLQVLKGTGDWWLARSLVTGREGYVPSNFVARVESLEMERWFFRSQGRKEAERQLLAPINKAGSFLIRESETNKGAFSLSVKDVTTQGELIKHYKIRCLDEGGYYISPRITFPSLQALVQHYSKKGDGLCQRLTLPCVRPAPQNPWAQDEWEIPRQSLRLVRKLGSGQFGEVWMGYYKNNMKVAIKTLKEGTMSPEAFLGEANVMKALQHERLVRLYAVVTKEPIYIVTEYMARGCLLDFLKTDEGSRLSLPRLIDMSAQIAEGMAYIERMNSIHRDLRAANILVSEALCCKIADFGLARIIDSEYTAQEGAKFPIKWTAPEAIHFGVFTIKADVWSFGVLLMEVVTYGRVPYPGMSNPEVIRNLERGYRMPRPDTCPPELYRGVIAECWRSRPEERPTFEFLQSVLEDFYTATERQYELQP
T3 sequence (P40233 1-298 limits assumed): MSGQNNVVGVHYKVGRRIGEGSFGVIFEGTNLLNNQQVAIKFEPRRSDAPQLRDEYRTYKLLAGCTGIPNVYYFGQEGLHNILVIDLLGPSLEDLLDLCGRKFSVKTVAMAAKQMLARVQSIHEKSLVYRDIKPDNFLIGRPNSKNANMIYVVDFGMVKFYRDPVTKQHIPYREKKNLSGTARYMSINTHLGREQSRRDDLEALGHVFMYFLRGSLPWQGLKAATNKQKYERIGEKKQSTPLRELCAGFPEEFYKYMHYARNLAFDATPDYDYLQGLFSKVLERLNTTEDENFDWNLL

On to `COCCN1CCN(Cc2ccc(-c3n[nH]c4c3C(=O)c3c(NC(=O)NN5CCOCC5)cccc3-4)cc2)CC1` [Compound B16, N-[3-(4-{[4-(2-methoxyethyl)piperazinyl]methyl}phenyl)-4-oxoindeno[2,3-d]pyrazol-5-yl](morpholin-4-ylamino)carboxamide dihydrochloride], for which the IC50 (commonly the midpoint of a concentration-inhibition curve) is under 100 nM in data set [1] (setting [7]); under 100 nM in data set [1] (setting [8]); under 100 nM in data set [2] (kinase panel, read-out: Blk IC50); under 100 nM in data set [2] (setting [9]); 11 nM in data set [3].
With `CC(C)N1CCN(C(=O)COc2ccc(-c3n[nH]c4c3C(=O)c3c(NC(=O)NN5CCOCC5)cccc3-4)cc2)CC1` [Compound A37], the IC50 in data set [4] (CK1 IC50 (A37), kinase panel, 10 μM ATP) is under 3 nM; in data set [4] (CSNK1A1 (CK1) Inhibition (IC50), A37, S. pombe CK1 (*)), under 5 nM; in data set [1] (setting [7]), 10 to 100 nM; in data set [1] (setting [8]), under 50 nM; in data set [2] (setting [9]), under 100 nM. For the same compound, the “Rb phosphorylation at Serine-780” value in data set [5] is reported as “inhibits Rb phosphorylation at Serine-780”. The compound also came in with a Solution stability in data set [6] of over 1 mo.
